From US9758492B2, “IDO inhibitors” (Bristol-Myers Squibb Company, priority 2013, dated 2017)

Tests used:
IDO [1] = molecular target: T1, IDO (Homo sapiens, UniProt P14902); assay: LLE_IDO_ABS_DR (IDO assay)
IDO [2] = molecular target: T1, IDO; assay: Kynurenine assay in Hela cells stimulated with IFN-γ to express IDO; type: cell-based; parameters: endogenous in cells; host or cells: HeLa (ATCC CCL-2), stimulated with human recombinant IFN-gamma; settings: 20 h, read-out: Hela Kyurenine (IC50)
Experimental: IFNg (R&D, 28-IF-100)—resuspend at 10 ug/mL in PBS with 0.1% BSA 30% TCA
Ehrlich reagent (2% w/v p-dimethylaminobenzaldehyde in glacial acetic acid)
Cell Titer 96 Aqueous Non-Radioactive Cell Proliferation Assay, MTS (Promega, Cat # G5430)
Cell Lines and Culture Conditions
Hela cancer cell lines were acquired from the American Type Culture Collection. Cells were maintained in phenol red free-RPMI1640 medium containing high glucose and L-glutamine (Invitrogen) supplemented with 10% fetal bovine serum (FBS; Invitrogen). Cell cultures were incubated at 37° C., 5% CO2, and 100% humidity.
Cell Treatment and Kynurenine Assay
Hela cells were seeded on 96-well plates (40,000 cells per well) and allowed to adhere for 5-6 hours. Cells were then treated with vehicle (DMSO) or with IDO inhibitor at a top dose of 30 μM (3-fold dilution all the way down to 1.5 nM). A final concentration of 100 ng/mL of human recombinant IFN-γ (R&D, 28-IF-100) was immediately added to the cells to stimulate IDO expression. Treated cells were then incubated for 20 hours at 37° C. At the end of the 20 h incubation, reactions were terminated by the addition of 30% TCA to each well. Plates were incubated for 30 minutes at 50° C. to hydrolyze N-formylkynurenine to kynurenine. Cells were centrifuged 10 minutes at 2400 rpm. 100 ul of supernatants were transferred to new 96 flat well plates and mixed with 100 ul Ehrlich reagent. The resulting solution was incubated 10 minutes at RT. Absorbance at 490 nm was read using Spectra Max 384 (Molecular Devices).

Human IDO1 = molecular target: T2, Human IDO1 (Homo sapiens, UniProt P14902); assay: IDO Kynurenine Assay with Human IDO1/HEK293 Cells; type: cell-based; settings: read-out: HEK human IDO-1 (IC50)
T2 construct: expressed in transfected cells; host or cells: HEK293
How it was run: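 HEK293 cells stably expressing human IDO1, in phenol red-free RPMI/10% FBS, exposed to compound for 20 h at 37 °C. Stopped with 0.2% TCA (50 °C, 30 min); kynurenine in supernatant detected with Ehrlich reagent, absorbance 490 nm.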

T1 sequence (P14902 whole entry): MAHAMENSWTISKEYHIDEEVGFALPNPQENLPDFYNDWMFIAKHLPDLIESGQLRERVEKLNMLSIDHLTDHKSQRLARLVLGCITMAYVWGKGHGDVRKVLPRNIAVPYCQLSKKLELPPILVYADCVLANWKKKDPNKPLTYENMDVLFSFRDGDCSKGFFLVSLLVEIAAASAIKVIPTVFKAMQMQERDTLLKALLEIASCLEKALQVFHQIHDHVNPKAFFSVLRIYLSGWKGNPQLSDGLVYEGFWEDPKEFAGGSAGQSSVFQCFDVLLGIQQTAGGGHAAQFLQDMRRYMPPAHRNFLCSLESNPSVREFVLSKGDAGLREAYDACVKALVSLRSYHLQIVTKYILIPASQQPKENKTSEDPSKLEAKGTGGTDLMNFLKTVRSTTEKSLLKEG
T2 sequence (P14902 whole entry): as above

| SMILES | IC50 (IDO [1]) | IC50 (IDO [2]) | IC50 (Human IDO1) |
| --- | --- | --- | --- |
| COc1ccc(-c2ccc(N(CC(F)F)CC3CC3)c(NC(=O)Nc3ccc(C)cc3)c2)cc1C(=O)O [Example 62, 4′-((cyclopropylmethyl) (2,2-difluoroethyl)amino)-4-methoxy-3′-(3-p-tolylureido)biphenyl-3-carboxylic acid] | 4120 nM | 2280 nM |  |
| Cc1ccc(NC(=O)Nc2cc(-c3ccccc3-c3nnn[nH]3)ccc2N2CCC[C@@H]3CCCC[C@@H]32)cc1 [Example 47, 1-(4-((4aS,8aS)-octahydroquinolin-1(2H)-yl)-2′-(1H-tetrazol-5-yl)biphenyl-3-yl)-3-p-tolylurea] | 40 nM | 10 nM |  |
| Cc1ccc(NC(=O)Nc2cc(-c3ccccc3C(=O)O)ccc2N(CC(C)C)CC(C)C)cc1 [Example 52, 4′-(diisobutyl-amino)-3′-(3-p-tolylureido) biphenyl-2-carboxylic acid] | 10 nM | 5.57 nM |  |
| Cc1ccc(NC(=O)Nc2cc(-c3ccccc3C(=O)O)c(F)cc2N(C)C2CCCCC2)cc1 [Example 221, 4′-(cyclohexyl(methyl)ami-no)-2′-fluoro-5′-(3-p-tolylureido)biphenyl-2-carboxylic acid] | 9.05 nM | 6.56 nM |  |
| CN(c1ccc(-c2ccccc2C(=O)O)cc1NC(=O)Nc1ccccc1F)C1CCCCC1 [Example 219, 4′-(cyclohexyl(methyl)amino)-3′-(3-(2-fluorophenyl)ureido) biphenyl-2-carboxylic acid] | 80 nM | 10 nM |  |
| CN(c1ccc(-c2ccccc2-c2nnn[nH]2)cc1NC(=O)Nc1ccc(C(F)(F)F)cc1)C1CCCCC1 [Example 2, 1-(4-(Cyclohexyl(methyl)amino)-2′-(1H-tetrazol-5-yl)biphenyl-3-yl)-3-(4-(trifluoromethyl)phenyl)urea] | 90 nM | 20 nM |  |
| CCN(c1ccc(-c2ccccc2-c2nnn[nH]2)cc1NC(=O)Nc1ccc(C)cc1)C1CCCCC1 [Example 216, 1-(4-(cyclohexyl(ethyl)amino)-2′-(1H-tetrazol-5-yl)biphenyl-3-yl)-3-p-tolylurea] | 0.835 nM | 0.831 nM |  |
| CN(c1ccc(-c2ccccc2-c2nnn[nH]2)cc1NC(=O)Nc1ccccc1C(F)(F)F)C1CCCCC1 [Example 212, 1-(4-(cyclohexyl(methyl)amino)-2′-(1H-tetrazol-5-yl)biphenyl-3-yl)-3-(2-(trifluoromethyl)phenyl)urea] | 1270 nM | 200 nM |  |
| Cc1ccc(NC(=O)Nc2cc(-c3ccccc3C(=O)O)ccc2N(C)C2CCCCC2)cc1 [Example 213, 4′-(cyclohexyl(methyl)amino)-3′-(3-p-tolylureido)biphenyl-2-carboxylic acid] | 10 nM | 6.56 nM |  |
| Cc1ccc(NC(=O)Nc2cc(-c3ccccc3-c3nnn[nH]3)ccc2N(C)C2CCCC2)cc1 [Example 3, 1-(4-(Cyclopentyl(methyl)amino)-2′-(1H-tetrazol-5-yl)biphenyl-3-yl)-3-p-tolylurea] | 60 nM | 10 nM |  |
| Cc1ccc(NC(=O)Nc2cc(-c3ccccc3-c3nnn[nH]3)ccc2N(C)C2CCOCC2)cc1 [Example 50, 1-(4-(methyl(tetra-hydro-2H-pyran-4-yl)amino)-2′-(1H-tetrazol-5-yl)biphenyl-3-yl)-3-p-tolylurea] | 310 nM | 60 nM |  |
| Cc1ccc(NC(=O)Nc2cc(-c3ccccc3C(=O)O)ccc2NC2CCCCC2)cc1 [Example 48, 4′-(cyclohexyl-amino)-3′-(3-p-tolylureido)biphenyl-2-carboxylic acid] | 500 nM | 850 nM |  |
| CCN(c1ccc(-c2ccccc2-c2nnn[nH]2)cc1NC(=O)Nc1ccccc1F)C1CCCCC1 [Example 53, 1-(4-(cyclohexyl (ethyl)amino)-2′-(1H-tetrazol-5-yl)biphenyl-3-yl)-3-(2-fluorophenyl) urea] | 3.45 nM | 0.772 nM |  |
| Cc1ccc(NC(=O)Nc2cc(-c3ccccc3-c3nnn[nH]3)ccc2NC2CCCCC2)cc1 [Example 46, 1-(4-(cyclohexylamino)-2′-(1H-tetrazol-5-yl)biphenyl-3-yl)-3-p-tolylurea] | 130 nM | 90 nM |  |
| CN(c1ccc(-c2ccccc2-c2nnn[nH]2)cc1NC(=O)Nc1ccccc1Cl)C1CCCCC1 [Example 45, 1-(2-chlorophenyl)-3-(4-(cyclohexyl (methyl)amino)-2′-(1H-tetrazol-5-yl)biphenyl-3-yl)urea] | 60 nM | 10 nM |  |
| COC(CN(C)c1ccc(-c2ccccc2-c2nnn[nH]2)cc1NC(=O)Nc1ccc(C)cc1)OC [Example 55, 1-(4-((2,2-dimethoxyethyl) (methyl)amino)-2′-(1H-tetrazol-5-yl)biphenyl-3-yl)-3-p-tolylurea] | 230 nM | 110 nM |  |
| Cc1ccc(NC(=O)Nc2cc(-c3ccccc3-c3nnn[nH]3)ccc2N(CC(F)F)CC2CC2)cc1 [Example 60, 1-(4-((cyclopropylmethyl) (2,2-difluoroethyl)amino)-2′-(1H-tetrazol-5-yl)biphenyl-3-yl)-3-p-tolylurea] | 140 nM | 140 nM |  |
| CN(c1ccc(-c2ccccc2C(=O)O)cc1NC(=O)Nc1ccccc1Cl)C1CCCCC1 [Example 215, 3′-(3-(2-chlorophenyl)ureido)-4′-(cyclohexyl(methyl)amino) biphenyl-2-carboxylic acid] | 1280 nM | 120 nM |  |
| COC(CN(C)c1ccc(-c2ccccc2C(=O)O)cc1NC(=O)Nc1ccc(C)cc1)OC [Example 54, 4′-((2,2-dimethoxyethyl) (methyl)amino)-3′-(3-p-tolylureido) biphenyl-2-carboxylic acid] | 300 nM | 80 nM |  |
| Cc1cccc(NC(=O)Nc2cc(-c3ccccc3-c3nnn[nH]3)ccc2N(C)C2CCCCC2)c1 [Example 211, 1-(4-(cyclohexyl(methyl)amino)-2′-(1H-tetrazol-5-yl)biphenyl-3-yl)-3-m-tolylurea] | 490 nM | 110 nM |  |
| CCCN(CC1CC1)c1ccc(-c2ccccc2C(=O)O)cc1NC(=O)Nc1ccc(C)cc1 [Example 58, 4′-((cyclopropylmethyl) (propyl)amino)-3′-(3-p-tolylureido) biphenyl-2-carboxylic acid] | 100 nM | 60 nM |  |
| COCCN(CCOC)c1ccc(-c2ccccc2-c2nnn[nH]2)cc1NC(=O)Nc1ccc(C)cc1 [Example 57, 1-(4-(bis(2-methoxyethyl)amino)-2′-(1H-tetrazol-5-yl)biphenyl-3-yl)-3-p-tolylurea] | 270 nM | 220 nM |  |
| Cc1ccc(NC(=O)Nc2cc(-c3ccccc3-c3nnn[nH]3)c(F)cc2N(CC(F)F)CC2CC2)cc1 [Example 223, 1-(4-((cyclopropylmethyl)(2,2-difluoroethyl)amino)-6-fluoro-2′-(1H-tetrazol-5-yl)biphenyl-3-yl)-3-p-tolylurea] | 420 nM | 160 nM |  |
| Cc1ccc(NC(=O)Nc2cc(-c3ccccc3-c3nnn[nH]3)ccc2N(CC(C)C)CC(C)C)cc1 [Example 1, 1-(4-(Diisobutylamino)-2′-(1H-tetrazol-5-yl)biphenyl-3-yl)-3-p-tolylurea] | 3.45 nM | 1.37 nM | 3.31 nM |
| CN(c1ccc(-c2ccccc2C(=O)O)cc1NC(=O)Nc1ccccc1)C1CCCCC1 [Example 218, 4′-(cyclohexyl(methyl)amino)-3′-(3-phenylureido)biphenyl-2-carboxylic acid] | 490 nM | 90 nM |  |
| COc1ccc(-c2cc(NC(=O)Nc3ccc(C)cc3)c(N(C)C3CCCCC3)cc2F)cc1C(=O)O [Example 220, 4′-(cyclohexyl(methyl)ami-no)-2′-fluoro-4-methoxy-5′-(3-p-tolylureido)biphenyl-3-carboxylic acid] | 1470 nM | 440 nM |  |
